Test results from paper PMC9604729, “Unusual Tetrahydropyridoindole-Containing Tetrapeptides with Human Nicotinic Acetylcholine Receptors Targeting Activity Discovered from Antarctica-Derived Psychrophilic Pseudogymnoascus sp. HDN17-933” (Marine Drugs, 2022).
Where “and” joins values, the source holds several entries; their conditions need not be identical. Identical values can stand only once. Like-named read-outs stand apart in the source and are kept apart here. Square brackets hold non-standard residues; d marks the D form. Ends that are not written are not given here. Peptide text beside a SMILES is read from it. Tpi = O=C(O)[C@@H]1Cc2c([nH]c3ccccc23)CN1

Key:
[1] = target: T1, human (h) α1β1εδ nAChR (Homo sapiens, UniProt P02708+P11230+Q04844+Q07001); assay: Two-electrode voltage clamp, inhibition of ACh-evoked currents at hα1β1εδ nAChR in Xenopus oocytes; type: cell-based; settings: for Relative current amplitude (h) α1β1εδ: compound 100 µM, currents activated by 5 μM ACh, ratio ACh + compound to ACh alone, mean ± SD, n = 6–11
T1 construct: host or cells: Xenopus laevis oocytes, cRNA injected
Procedure: (§1) All procedures were approved by the University of Wollongong Animal Ethics Committees (project number: AE2003). Female Xenopus laevis were sourced from Nasco (Fort Atkinson, WI, USA), and a maximum of four frogs were kept in a 15 L aquarium at 20–26 °C with 12 h light/dark cycle. Oocytes were obtained from five-year-old frogs anesthetized with 1.7 mg/mL ethyl 3-aminobenzoate methanesulfonate (pH 7.4 with NaHCO3). Stage V-VI oocytes (Dumont’s classification; 1200–1300 μm diameter) were defolliculated with 1.5 mg/mL collagenase Type II (Worthington Biochemical Corp., Lakewood, NJ, USA) at room temperature for 1–2 h in OR-2 solution containing (in mM): 82.5 NaCl, 2 KCl, 1 MgCl2 and 5 HEPES at pH 7.4.
(§2) The human muscle nAChR clones (α1, β1, γ, δ and ε) were purchased from Integrated DNA Technologies (Coralville, IA, USA), whereas the human α3, α9, α10, β2, and β4 clones were purchased from OriGene (Rockville, MD, USA), and all were subsequently inserted into the pT7TS vector. The human α4 and α7 clones were obtained from Prof. Jon Lindstrom (University of Pennsylvania, Philadelphia, PA, USA). Plasmid constructs of the human nAChR clones were linearized for in vitro mRNA synthesis using mMessage mMachine transcription kit (AMBION, Forster City, CA, USA).
(§3) Oocytes were injected with 5 ng cRNA for hα1β1γδ, hα1β1εδ, hα3β2, hα3β4 and hα4β2, 10 ng cRNA for hα7 nAChR, and 35 ng cRNA for hα9α10 nAChR (concentration confirmed spectrophotometrically and by gel electrophoresis). The muscle subunit cRNA ratio was 2:1:1:1 (α1:β1: γ/ε:δ), whereas the heteromeric α and β subunit cRNA ratio was 1:1, injected using glass pipettes pulled from glass capillaries (3-000-203 GX, Drummond Scientific Co., Broomall, PA, USA). Oocytes were incubated at 18 °C in sterile ND96 solution composed of (in mM): 96 NaCl, 2 KCl, 1 CaCl2, 1 MgCl2, and 5 HEPES at pH 7.4, supplemented with 5% fetal bovine serum, 50 mg/L gentamicin (GIBCO, Grand Island, NY, USA) and […] penicillin-streptomycin (GIBCO).
(§4) Electrophysiological recordings were carried out 2–5 days post cRNA microinjection. Two-electrode voltage clamp recordings of X. laevis oocytes expressing human nAChRs were performed at room temperature (21–24 °C) using a GeneClamp 500B amplifier and pClamp9 software interface (Molecular Devices, Sunnyvale, CA, USA) at a holding potential −80 mV. Voltage-recording and current-injecting electrodes were pulled from GC150T-7.5 borosilicate glass (Harvard Apparatus, Holliston, MA) and filled with 3 M KCl, giving resistances of 0.3–1 MΩ. Due to the Ca^2+ permeability of α9α10 nAChRs, 100 µM BAPTA-AM incubation was carried out before recording to prevent the activation of X. laevis oocyte endogenous Ca^2+-activated chloride channels. Oocytes expressing hα9α10 nAChRs were perfused with ND115 solution containing (in mM): 115 NaCl, 2.5 KCl, 1.8 CaCl2, and 10 HEPES at pH 7.4, whereas oocytes expressing all other nAChR subtypes were perfused with ND96 solution using a continuous Legato 270 push/pull syringe pump perfusion system (KD Scientific, Holliston, MA, USA) at a rate of 2 mL/min in an OPC-1 perfusion chamber of <20 µL volume (Automate Scientific, Berkeley, CA, USA).
(§5) Initially, oocytes were briefly washed with ND115/ND96 solution, followed by 3 applications of ACh at a half-maximal excitatory ACh concentration (EC50) for the nAChR subtypes (3 µM for hα4β2, 5 µM for hα1β1γδ and hα1β1εδ, 6 µM for hα3β2 and hα9α10, 100 µM for hα7 and 300 µM for hα3β4). Washout with bath solution was performed for 3 min between ACh applications. Oocytes were incubated with compounds for 5 min with the perfusion system turned off, followed by co-application of ACh and compound with flowing bath solution. All compound solutions were prepared in ND115/ND96 + 0.1% bovine serum albumin (BSA). Incubation with 0.1% BSA was performed to ensure that the BSA and the pressure of the perfusion system had no effect on nAChRs. […]

[2] = target: T2, human (h) α1β1γδ nAChR (Homo sapiens, UniProt P02708+P07510+P11230+Q07001); assay: Two-electrode voltage clamp, inhibition of ACh-evoked currents at hα1β1γδ nAChR in Xenopus oocytes; type: cell-based; settings: for Relative current amplitude (h)α1β1γδ: compound 100 µM, currents activated by 5 μM ACh, ratio ACh + compound to ACh alone, mean ± SD, n = 6–11
T2 construct: host or cells: Xenopus laevis oocytes, cRNA injected
T2 sequence (P11230 24-501): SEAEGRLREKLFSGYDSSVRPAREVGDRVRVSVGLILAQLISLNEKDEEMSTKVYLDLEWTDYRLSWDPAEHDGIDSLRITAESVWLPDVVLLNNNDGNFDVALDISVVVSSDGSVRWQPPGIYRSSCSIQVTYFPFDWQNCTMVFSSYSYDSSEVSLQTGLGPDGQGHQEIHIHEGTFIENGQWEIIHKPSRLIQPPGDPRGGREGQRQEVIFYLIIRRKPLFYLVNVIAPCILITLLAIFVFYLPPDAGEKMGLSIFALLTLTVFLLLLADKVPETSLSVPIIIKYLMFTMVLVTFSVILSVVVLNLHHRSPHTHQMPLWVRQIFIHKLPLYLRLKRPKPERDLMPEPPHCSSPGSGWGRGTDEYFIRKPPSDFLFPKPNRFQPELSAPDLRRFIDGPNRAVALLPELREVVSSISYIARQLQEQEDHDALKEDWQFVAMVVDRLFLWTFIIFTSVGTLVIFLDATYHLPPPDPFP
T2 sequence (P07510 23-517): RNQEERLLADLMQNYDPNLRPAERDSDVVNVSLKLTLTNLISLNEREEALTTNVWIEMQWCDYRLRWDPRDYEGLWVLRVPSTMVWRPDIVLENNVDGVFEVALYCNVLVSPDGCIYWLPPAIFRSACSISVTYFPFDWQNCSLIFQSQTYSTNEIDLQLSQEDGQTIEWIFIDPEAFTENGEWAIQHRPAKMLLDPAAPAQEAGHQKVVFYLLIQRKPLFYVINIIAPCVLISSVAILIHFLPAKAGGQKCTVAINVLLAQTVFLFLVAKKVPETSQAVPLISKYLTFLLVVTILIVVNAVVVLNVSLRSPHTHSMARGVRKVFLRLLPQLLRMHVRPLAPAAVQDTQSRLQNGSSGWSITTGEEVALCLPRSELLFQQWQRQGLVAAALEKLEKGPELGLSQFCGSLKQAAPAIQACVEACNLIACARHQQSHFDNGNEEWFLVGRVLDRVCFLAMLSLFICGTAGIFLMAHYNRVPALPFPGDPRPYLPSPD
T2 sequence (P02708 21-457): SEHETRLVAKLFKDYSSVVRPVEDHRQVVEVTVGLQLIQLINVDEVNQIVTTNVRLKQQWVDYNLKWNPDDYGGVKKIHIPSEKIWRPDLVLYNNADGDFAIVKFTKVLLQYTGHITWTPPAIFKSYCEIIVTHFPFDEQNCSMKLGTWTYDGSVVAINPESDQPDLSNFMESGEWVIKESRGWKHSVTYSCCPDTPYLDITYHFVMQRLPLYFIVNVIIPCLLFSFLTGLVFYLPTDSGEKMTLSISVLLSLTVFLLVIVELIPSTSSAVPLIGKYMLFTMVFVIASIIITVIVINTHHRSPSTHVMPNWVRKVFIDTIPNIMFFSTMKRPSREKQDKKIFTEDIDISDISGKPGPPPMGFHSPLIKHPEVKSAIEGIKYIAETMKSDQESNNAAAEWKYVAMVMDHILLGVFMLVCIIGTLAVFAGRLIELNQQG
T2 sequence (Q07001 22-517): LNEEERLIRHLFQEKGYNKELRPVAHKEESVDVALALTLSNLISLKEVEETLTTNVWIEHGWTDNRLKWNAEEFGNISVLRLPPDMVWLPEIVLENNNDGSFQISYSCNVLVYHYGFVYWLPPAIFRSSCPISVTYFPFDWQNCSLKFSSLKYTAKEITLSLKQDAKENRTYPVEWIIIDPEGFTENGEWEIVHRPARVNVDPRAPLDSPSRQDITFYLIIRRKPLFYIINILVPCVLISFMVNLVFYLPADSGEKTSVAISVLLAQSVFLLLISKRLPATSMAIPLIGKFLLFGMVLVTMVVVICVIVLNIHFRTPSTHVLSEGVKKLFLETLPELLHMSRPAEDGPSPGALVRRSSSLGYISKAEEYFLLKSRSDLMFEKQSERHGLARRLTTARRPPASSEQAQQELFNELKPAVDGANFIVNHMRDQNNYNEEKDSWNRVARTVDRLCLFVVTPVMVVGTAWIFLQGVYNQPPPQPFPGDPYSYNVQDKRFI
Procedure: as §1, §2, §3, §4, §5

[3] = target: T3, human (h) α3β2 nAChR (Homo sapiens, UniProt P17787+P32297); assay: Two-electrode voltage clamp, inhibition of ACh-evoked currents at hα3β2 nAChR in Xenopus oocytes; type: cell-based; settings: for Relative current amplitude (h)α3β2: compound 100 µM, currents activated by 6 μM ACh, ratio ACh + compound to ACh alone, mean ± SD, n = 6–11
T3 construct: host or cells: Xenopus laevis oocytes, cRNA injected
T3 sequence (P32297 32-505): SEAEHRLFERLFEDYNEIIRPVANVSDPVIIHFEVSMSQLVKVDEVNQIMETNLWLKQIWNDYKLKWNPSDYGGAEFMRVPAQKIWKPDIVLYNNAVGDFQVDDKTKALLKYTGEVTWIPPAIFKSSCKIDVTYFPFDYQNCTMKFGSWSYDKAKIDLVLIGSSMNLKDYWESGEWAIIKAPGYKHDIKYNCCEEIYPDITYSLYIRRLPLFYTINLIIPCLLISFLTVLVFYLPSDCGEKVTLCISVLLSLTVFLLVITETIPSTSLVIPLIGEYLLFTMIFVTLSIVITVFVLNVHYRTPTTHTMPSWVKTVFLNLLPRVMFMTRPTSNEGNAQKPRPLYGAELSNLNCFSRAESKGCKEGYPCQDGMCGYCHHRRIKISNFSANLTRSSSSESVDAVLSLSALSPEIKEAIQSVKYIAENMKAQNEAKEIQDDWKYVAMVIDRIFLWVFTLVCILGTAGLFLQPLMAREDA
T3 sequence (P17787 26-502): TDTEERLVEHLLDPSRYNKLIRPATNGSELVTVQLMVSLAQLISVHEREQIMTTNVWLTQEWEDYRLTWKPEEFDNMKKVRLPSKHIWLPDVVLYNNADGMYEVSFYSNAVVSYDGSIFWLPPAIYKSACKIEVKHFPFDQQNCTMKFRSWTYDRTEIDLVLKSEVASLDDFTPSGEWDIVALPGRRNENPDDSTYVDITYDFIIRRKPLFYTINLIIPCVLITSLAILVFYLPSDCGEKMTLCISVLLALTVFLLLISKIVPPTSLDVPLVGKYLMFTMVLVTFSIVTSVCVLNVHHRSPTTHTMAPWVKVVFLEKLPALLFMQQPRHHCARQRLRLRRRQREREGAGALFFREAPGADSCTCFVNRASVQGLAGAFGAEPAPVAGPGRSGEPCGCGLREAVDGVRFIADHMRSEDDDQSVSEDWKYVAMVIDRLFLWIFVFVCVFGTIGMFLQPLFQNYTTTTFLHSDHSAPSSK
Procedure: as §1, §2, §3, §4, §5

[4] = target: T4, human (h) α3β4 nAChR (Homo sapiens, UniProt P30926+P32297); assay: Two-electrode voltage clamp, inhibition of ACh-evoked currents at hα3β4 nAChR in Xenopus oocytes; type: cell-based; settings: for Relative current amplitude (h)α3β4: compound 100 µM, currents activated by 300 μM ACh, ratio ACh + compound to ACh alone, mean ± SD, n = 6–11
T4 construct: host or cells: Xenopus laevis oocytes, cRNA injected
T4 sequence (P30926 22-498): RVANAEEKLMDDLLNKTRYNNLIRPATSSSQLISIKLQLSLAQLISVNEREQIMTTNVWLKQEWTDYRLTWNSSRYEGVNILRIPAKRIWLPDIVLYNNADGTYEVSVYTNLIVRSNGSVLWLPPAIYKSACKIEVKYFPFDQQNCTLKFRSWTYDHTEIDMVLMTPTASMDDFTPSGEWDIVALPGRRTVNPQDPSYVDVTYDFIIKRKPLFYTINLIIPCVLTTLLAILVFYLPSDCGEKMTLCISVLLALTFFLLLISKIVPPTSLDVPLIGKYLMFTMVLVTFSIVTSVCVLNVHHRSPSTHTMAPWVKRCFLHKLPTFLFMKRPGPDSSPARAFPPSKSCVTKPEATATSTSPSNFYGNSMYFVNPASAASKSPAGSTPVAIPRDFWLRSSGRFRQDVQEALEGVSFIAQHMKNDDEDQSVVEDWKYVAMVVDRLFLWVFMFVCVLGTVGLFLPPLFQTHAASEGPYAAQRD
T4 sequence (P32297 32-505): as the sequence (P32297 32-505) above
Procedure: as §1, §2, §3, §4, §5

[5] = target: T5, human (h) α4β2 nAChR (Homo sapiens, UniProt P17787+P43681); assay: Two-electrode voltage clamp, inhibition of ACh-evoked currents at hα4β2 nAChR in Xenopus oocytes; type: cell-based; settings: for Relative current amplitude (h)α4β2: compound 100 µM, currents activated by 3 μM ACh, ratio ACh + compound to ACh alone, mean ± SD, n = 6–11
T5 construct: Jon Lindstrom; β2: OriGene (clones); host or cells: Xenopus laevis oocytes, cRNA injected
Procedure: as §1, §2, §3, §4, §5

[6] = target: T6, human (h) α7 nAChR (Homo sapiens, UniProt P36544); assay: Two-electrode voltage clamp, inhibition of ACh-evoked currents at hα7 nAChR in Xenopus oocytes; type: cell-based; settings: compound 100 µM; currents activated by 100 μM ACh; ratio ACh + compound to ACh alone; mean ± SD, n = 6–11
T6 construct: Jon Lindstrom (clone); host or cells: Xenopus laevis oocytes, cRNA injected
T6 sequence (P36544 23-502): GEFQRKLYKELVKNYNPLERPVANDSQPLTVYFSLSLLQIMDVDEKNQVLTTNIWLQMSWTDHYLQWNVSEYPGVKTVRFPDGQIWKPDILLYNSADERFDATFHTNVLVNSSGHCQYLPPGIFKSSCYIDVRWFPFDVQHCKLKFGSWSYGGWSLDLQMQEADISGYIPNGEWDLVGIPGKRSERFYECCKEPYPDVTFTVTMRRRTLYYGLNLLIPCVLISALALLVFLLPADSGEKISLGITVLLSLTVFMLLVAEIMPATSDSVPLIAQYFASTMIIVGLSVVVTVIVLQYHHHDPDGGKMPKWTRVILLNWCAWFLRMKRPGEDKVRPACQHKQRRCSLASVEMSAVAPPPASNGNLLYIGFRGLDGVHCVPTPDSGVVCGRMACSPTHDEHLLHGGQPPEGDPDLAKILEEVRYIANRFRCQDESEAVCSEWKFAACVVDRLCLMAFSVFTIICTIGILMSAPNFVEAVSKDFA
Procedure: as §1, §2, §3, §4, §5

[7] = target: T7, human (h) α9α10 nAChR (Homo sapiens, UniProt Q9GZZ6+Q9UGM1); assay: Two-electrode voltage clamp, inhibition of ACh-evoked currents at hα9α10 nAChR in Xenopus oocytes; type: cell-based; settings: for Relative current amplitude (h)α9α10: compound 100 µM, currents activated by 6 μM ACh, ratio ACh + compound to ACh alone, mean ± SD, n = 6–11
T7 construct: host or cells: Xenopus laevis oocytes, cRNA injected
T7 sequence (Q9UGM1 26-479 limits assumed): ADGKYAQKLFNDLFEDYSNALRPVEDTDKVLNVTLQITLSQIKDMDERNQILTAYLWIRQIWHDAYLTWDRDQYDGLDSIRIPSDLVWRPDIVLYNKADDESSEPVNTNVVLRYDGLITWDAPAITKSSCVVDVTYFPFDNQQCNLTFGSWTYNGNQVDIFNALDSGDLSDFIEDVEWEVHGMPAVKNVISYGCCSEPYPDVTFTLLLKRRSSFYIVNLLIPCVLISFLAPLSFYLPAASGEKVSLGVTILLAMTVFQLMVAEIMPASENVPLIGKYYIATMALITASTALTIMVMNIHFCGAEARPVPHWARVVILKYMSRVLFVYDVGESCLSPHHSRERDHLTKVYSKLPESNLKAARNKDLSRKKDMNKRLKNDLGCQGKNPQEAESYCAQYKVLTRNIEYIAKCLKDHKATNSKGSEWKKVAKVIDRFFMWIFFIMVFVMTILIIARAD
T7 sequence (Q9GZZ6 25-450): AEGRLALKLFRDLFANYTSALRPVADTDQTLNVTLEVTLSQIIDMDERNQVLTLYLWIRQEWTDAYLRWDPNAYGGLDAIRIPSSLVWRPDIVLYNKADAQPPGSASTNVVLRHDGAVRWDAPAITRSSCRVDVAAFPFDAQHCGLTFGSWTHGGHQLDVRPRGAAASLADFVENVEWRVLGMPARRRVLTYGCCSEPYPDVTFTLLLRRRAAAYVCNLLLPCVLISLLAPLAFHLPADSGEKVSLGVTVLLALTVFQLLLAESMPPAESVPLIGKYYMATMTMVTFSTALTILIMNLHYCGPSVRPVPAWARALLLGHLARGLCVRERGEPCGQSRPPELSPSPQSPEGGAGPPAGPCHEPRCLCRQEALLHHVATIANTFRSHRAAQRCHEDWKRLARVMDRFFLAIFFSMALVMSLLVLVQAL
Procedure: as §1, §2, §3, §4, §5

[8] = tested on: HL60 cell lines; settings: cited from earlier work
[9] = tested on: BEL-7047 cell lines; set-up: method as in doi:10.1016/j.tet.2008.11.078; settings: read-out: IC50, cytotoxicity against BEL-7047 cell lines; cited from earlier work
[10] = tested on: NF-kB; set-up: method as in doi:10.1016/j.tet.2012.09.038; settings: cited from earlier work
[11] = tested on: Balamus amphitrite; set-up: method as in doi:10.1016/j.tetlet.2015.12.026; settings: cited from earlier work
[12] = target: T1, human (h) α1β1εδ nAChR; settings: read-out: half-maximal inhibitory concentration (IC50), ACh-evoked currents mediated by hα1β1εδ; cited from earlier work
[13] = compound 100 µM (Figure 3, Table S1), 100 µM
[14] = compound 100 µM (Figure 3, Table S1)

| Molecule | Relative current amplitude (h) α1β1εδ [1] | Relative current amplitude (h)α1β1γδ [2] | Relative current amplitude (h)α3β2 [3] | Relative current amplitude (h)α3β4 [4] | Relative current amplitude (h)α4β2 [5] | Relative current amplitude (h)α7 [6] | Relative current amplitude (h)α9α10 [7] | other results |
| --- | --- | --- | --- | --- | --- | --- | --- | --- |
| CC(C)C(NC(=O)C(N)Cc1c[nH]c2ccccc12)C(=O)NC(C(=O)NC(Cc1ccccc1)C(=O)O)C(C)C (stereo not shown) [Compound 1, psegynamide A] (H-WVVF-OH; configuration not given here) | 0.190 ± 0.056 | 0.664 ± 0.062 | 0.435 ± 0.071 | 0.462 ± 0.069 | 0.637± 0.053 | 0.293 ± 0.074 | 0.103 ± 0.027 |  |
| COC(=O)[C@@H](Cc1ccccc1)NC(=O)[C@@H](NC(=O)[C@H](NC(=O)[C@@H](N)Cc1c[nH]c2ccccc12)C(C)C)C(C)C [Compound 2, psegynamide B] (H-W[dV]V[dF]-OMe) | 0.024 ± 0.011 | 0.017 ± 0.014 | 0.236 ± 0.069 | 0.071 ± 0.028 | 0.301 ± 0.039 | 0.566 ± 0.072 | 0.075 ± 0.036 | inhibition of ACh-evoked currents, α1β1εδ [1, 13]: > 70%; inhibition of ACh-evoked currents, α1β1γδ [2, 13]: > 70% and > 98%; inhibition at 100 µM [3, 14]: > 70%; inhibition at 100 µM [4, 14]: > 70%; inhibition at 100 µM [5, 14]: > 70%; inhibition at 100 µM [7, 14]: > 70% |
| CC(C)[C@H](NC(=O)[C@H](NC(=O)[C@@H](N)Cc1c[nH]c2ccccc12)C(C)C)C(=O)N[C@H](Cc1ccc(O)cc1)C(=O)O [Compound 3, psegynamide C] (H-W[dV]V[dY]-OH) | 0.648 ± 0.067 | 0.861 ± 0.084 | 0.451 ± 0.056 | 0.675 ± 0.040 | 0.793 ± 0.078 | 0.368 ± 0.088 | 0.509 ± 0.041 |  |
| CC(C)[C@H](NC(=O)[C@H](NC(=O)[C@@H]1Cc2c([nH]c3ccccc23)CN1)C(C)C)C(=O)N[C@H](Cc1ccccc1)C(=O)O [Compound 4, psegynamide D] | 0.757 ± 0.065 | 0.985 ± 0.019 | 0.924 ± 0.069 | 0.670 ± 0.049 | 0.972 ± 0.057 | 0.228 ± 0.049 | 0.824 ± 0.064 |  |
| COC(=O)[C@@H](Cc1ccccc1)NC(=O)[C@@H](NC(=O)[C@H](NC(=O)[C@@H]1Cc2c([nH]c3ccccc23)CN1)C(C)C)C(C)C [Compound 5, psegynamide E] | 0.392 ± 0.069 | 0.799 ± 0.063 | 0.656 ± 0.074 | 0.656 ± 0.051 | 0.837 ± 0.061 | 0.399 ± 0.061 | 0.374 ± 0.073 |  |
| COC(=O)[C@@H](Cc1ccc(O)cc1)NC(=O)[C@@H](NC(=O)[C@H](NC(=O)[C@@H]1Cc2c([nH]c3ccccc23)CN1)C(C)C)C(C)C [Compound 6, psegynamide F] (H-[Tpi][dV]V[dY]-OMe) | 0.618 ± 0.047 | 0.802 ± 0.096 | 0.579 ± 0.077 | 0.777 ± 0.053 | 0.938 ± 0.076 | 0.838 ± 0.066 | 0.760 ± 0.062 |  |
| C[C@@H]1C=CC(=O)[C@@]2(C)CC[C@@H]3[C@@H]4[C@@](C)(CC[C@@]4(C)CO)C[C@@]132 [conidiogenone C] |  |  |  |  |  |  |  | IC50 ([8]; read-out: IC50, cytotoxicity against HL60 cell lines): 38 nM; IC50 [9]: 900 nM |
| CC(=O)c1cc(C)c(O)c(C[C@]23Cc4c(O)c(C(C)=O)cc(C)c4O[C@@]2(O)[C@@H](C)OC3=O)c1O [penilactone A] |  |  |  |  |  |  |  | NF-kB inhibitory rate [10]: 40% |
| CC(=O)c1cc(C)c(O)c(C[C@@]23Cc4c(O)c(C(C)=O)cc(C)c4O[C@]2(O)[C@H](CC(=O)O)OC3=O)c1O [penilactone B] |  |  |  |  |  |  |  | NF-kB inhibitory rate [10]: 40% |
| trichobotryside A |  |  |  |  |  |  |  | EC50, inhibiting the larvae settlement of Balamus amphitrite [11]: 2.5 µg/mL |
| trisorbicillone A |  |  |  |  |  |  |  | IC50 ([8]; read-out: IC50, cytotoxic against HL60 cell lines): 3140 nM |
| α-conotoxin GI (ECCNPACGRHYSC; ends and bridges not checked; cysteine pairing not given here; UniProt X5I9Y2 50-62, looked up) |  |  |  |  |  |  |  | IC50 [12]: 20 nM |
